Experimental data taken from patent US20190105260A1, “COMPOSITIONS AND METHODS TO PROMOTE WOUND HEALING” (The Regents of the University of California, priority 2016, published 2019).
Blank lines part the entries; values can stand above or below the molecule they belong to.

Legend:
[1] = test system: bone marrow-derived macrophages (BMDMs), M2 polarization; test: In vitro macrophage polarization (RT-PCR, flow cytometry); assay type: cell-based, mouse; settings: for effect on fluoxetine-enhanced M2 polarization (CD206+ cells, flow cytometry): added to fluoxetine, 1 μM Ketanserin, 100 nM NAN-190, 24 hours
Protocol: Bone marrow described macrophages from wild-type C57/B6J mice were harvested and cultured under polarizing conditions towards M0 (no polarization; normal culture medium), M1 (using LPS and IFNγ) or M2 (using IL-4 and IL-13). […] M2 activation status was assessed using RT-PCR (normalized to HSP90) for CD206, Ym-1 and Arg-1. M1 activation status was assessed using TNFα (A, B). C: At day 7 of macrophage maturation, adherent bone marrow derived monocytes in culture were identified with macrophage markers (CD11b and F4/80) using flow cytometry. After 24 hours, CD206 expression was identified in treated group (C). Results were then quantified and reported (D). Data presented as average±SEM. ** p<0.01.
Wild type C57BL/6 male and female mice were used. Bone marrow-derived (BMD) cells were isolated from mouse femurs and tibias. ACK solution (Thermo Fisher catalog 50-983-220) was used for 5 minutes at 37° C. to lyse red blood cells. BMD macrophages (BMDMs) were matured with (20 ng/mL) M-CSF (R&D) for 7 days. On day 7, BMDM phenotype was confirmed with flow cytometry by CD11b and F4/80 markers (Biolegend). Following maturation, BMDMs were either polarized towards M1 lineage with 10 ng/ml LPS (Sigma Aldrich) and 100 ng/ml IFN-g (R&D) or M2 lineage with 20 ng/ml IL-4 (PeproTech) and IL-13 (R&D) in cRPMI (1×RPMI (Cellgro), 10% FBS, 1× sodium pyruvate (GIBCO), 1× penicillin/streptomycin (GIBCO) at 37° C. for 24 hours. Non-polarized BMDMs and M1-polarized BMDMs were used as experimental controls for polarization procedure. M2-polarized BMDMs were co-treated with either PBS or FLX and/or 100 nM NAN-190 or 1 μM Ketanserin. Cells were either collected after 4 hours by scraping and stored in buffer RLT (Qiagen) at −80° C. or were read with flow cytometry after 24 hours and data were appropriately compensated and analyzed by FlowJo.
RT-PCR was performed using PowerUp SYBR Green Master Mix (Thermo/Applied Biosystems). Data was analyzed using the ΔΔCt method and normalized using geometric mean of the housekeeping genes (GAPDH, Hsp90, 18S rRNA). Fold change is shown relative to control groups.

[2] = cited from earlier work
[3] = test system: Neonatal Human Keratinocytes (NHKs); test: Scratch wound assay; assay type: cell-based
Protocol: (§1) FIGS. 2A-C illustrate that serotonin (5-HT) increases keratinocyte migratory speed and re-epithelialization in a scratch wound ex vivo model, likely through the ERK-STAT3-NFkB pathway.
Neonatal Human Keratinocytes (NHKs) were either non-treated (Control) or treated with 5-HT (1 μM) and FLX (0.01 μM, 0.1 μM, 1 μM) and/or 5HTR1A blocker (100 nM NAN190) and/or 5HTR2A antagonist (1 μM Ketanserin or KET). NHKs from at least 3 different donors were plated at fully confluent density and treated with Mitomycin to prevent proliferation. P-200 tips were used to induce a scratch wound in the middle of each well and time-lapse images were recorded every 30 minutes for 6 hours and % healed were calculated as previously described. Data represented as Mean±SEM. Student t-tests were used for statistical analysis. *, p<0.05; **, p<0.01; ***, p<0.001.
NHKs were isolated and cultured from human foreskin as previously reported. […]
NHKs from 3 different donors were plated on collagen-coated 12-well plates at fully confluent density and treated with Mitomycin C to prevent proliferation. P-200 tips were used to induce a scratch wound in the middle of each well and time-lapse images were recorded every 30 minutes for 6 hours and % healed were calculated as following: % Healed=([(SA)]_(t=0)−[(SA)]_(t=6))/[(SA)]_(t=0) which SA represents surface area of the scratch wound gap at 0-hour (t=0) or 6-hour time point. […]

[4] = test system: Db/Db female mice, diabetic model of impaired wound healing; test: In vivo splinted full-thickness excisional wound model, re-epithelialization analysis; design: species or system mouse; settings: for re-epithelialization compared to PEG vehicle control: daily topical 0.2% fluoxetine or 0.01% timolol, day 12; for re-epithelialization vs vehicle control: daily topical 0.2% fluoxetine or 2% serotonin in 5% polyethylene glycol, day 10
Protocol: Panel B: Histomorphometric analysis of wounds. Representative histology sections for each group were chosen. Following euthanasia of animals, wounds were excised, biopsied and bisected. Wound tissue was fixed in paraformaldehyde for 12-16 hours and then paraffin embedded. Serial 5 μm sections were obtained from the center of the wound and the section with the largest wound bed (as defined by distance between hair follicles) was stained with hemotoxylin and eosin. Images were taken using 10× objective on a Keyance microscope. Panels C-D: Re-epithelialization was determined on sections created as in panel B. Image J analysis software was utilized to divide the re-epithelialized tissue (distance from hair follicle to remaining wound) by the entire original wound surface (as defined as distance between hair follicles). Panel D provides the distribution of data depicted in Panel C. P values were derived using a 2-tailed t-test.
13 week-old Db/Db female mice underwent full-thickness excisional biopsies with 8 mm punch biopsies. Wounds were splinted to prevent contraction. At day 12, animals were sacrificed and wounds were harvested to assess re-epithelialization. Representative histology sections for each group were chosen. Following euthanasia of animals, wounds were excised, biopsied and bisected. Wound tissue was fixed in paraformaldehyde for 12-16 hours and then paraffin embedded. Serial […] sections were obtained from the center of the wound and the section with the largest wound bed (as defined by distance between subcutaneous fat tissue) was stained with hemotoxylin and eosin. Images were taken using 10× objective on a Keyance microscope. (A) Re-epithelialization was determined on sections created. Image J analysis software was utilized to divide the re-epithelialized tissue by the entire original wound surface. (B) Percent of wounds at different stages of re-epithelialization was quantified. Data represented as Mean±SEM. P values were derived using a 2-tailed t-test. N=5/group.
13 week-old Db/Db female mice underwent full-thickness excisional wounding with 8 mm punch biopsy tool. All wounds were splinted to prevent contraction. […] At day 11, animals were sacrificed and wounds were harvested to assess re-epithelialization. Representative histology sections for each group were chosen. Following euthanasia of animals, wounds were excised, biopsied and bisected. Wound tissue was fixed in paraformaldehyde for 12-16 hours and then paraffin embedded. Serial […] sections were obtained from the center of the wound and the section with the largest wound bed (as defined by distance between subcutaneous fat tissue) was stained with hemotoxylin and eosin. Images were taken using 10× objective on a Keyance microscope. Re-epithelialization was determined on sections created. Image J analysis software was utilized to divide the re-epithelialized tissue by the entire original wound surface. Data represented as Mean±SEM. N=5/group.
Diabetic status (blood glucose >300 mg/dl) was confirmed in female Db/Db mice at age 11 weeks. At age 13 weeks, mice underwent hair removal and synchronization of follicle cycling through depilation and shaving. Synchronization was confirmed based on lack of skin pigmentation in included mice. 1 day after synchronization, 13-week-old Db/Db female mice underwent full-thickness excisional wounding using a splinted model as described. Briefly, 8 mm punch biopsies were used to make full-thickness excisional wounds. […]

[5] = test system: wound beds of Db/Db female mice; test: Immunohistochemistry of wound beds (Gr-1, F4/80, CD31); assay type: in vivo, mouse; settings: topical treatment, day 10
Protocol: 13 week-old Db/Db female mice underwent full-thickness excisional biopsies with 8 mm punch biopsies. Wounds were splinted to prevent contraction. At day 10, animals were sacrificed and wounds were harvested to assess re-epithelialization. Representative histology sections for each group were chosen. Following euthanasia of animals, wounds were excised, biopsied and bisected. Wound tissue was fixed in paraformaldehyde for 12-16 hours and then paraffin embedded. Serial […] sections were obtained from the center of the wound and the section with the largest wound bed (as defined by distance between subcutaneous fat tissue—indicated by yellow arrows in figure). Images were taken using 10× objective on a Keyance microscope. Sections were stained with antibody to Gr-1 (A), CD31 (B) or F4/80 (C) to assess neutrophil, endothelial cell or macrophage numbers, respectively, in the wound beds. Wound bed area was outlined in Spectrum software (demarcated by yellow arrows in this figure), which then calculated the number of positive cells. Data is presented as positive cells/mm^2. P values were derived using a 1-tailed t-test. *, p<0.05; **, p<0.01. N=5/group.
Following euthanasia, wound tissue was harvested and processed as described above. Antibodies: F4/80 (Serotec, now BioRad MCA497A488, clone CI:A3-1, 1:100 dilution); GR-1 (Biolegend, catalog number 108402, clone RB6-8C5, 1:200 dilution); CD31 (Santa Cruz, catalog number sc1506, clone M20, 1:1800 dilution). Wound beds were analyzed in Spectrum software (UC Davis). Wound beds were outlined based on subcutaneous fat presence and positive cells were calculated as #/mm^2 of wound bed.

[6] = test system: CFSE-labeled CD4+CD25- effector T cells stimulated with CD11c+ dendritic cells; test: Mixed lymphocyte reaction; assay type: cell-based, mouse; settings: 1 μM fluoxetine, 10 μM serotonin, 3,000 AMSC or 1,500 BMSC added to co-cultures
Protocol: Panel A: In a mixed lymphocyte reaction, 250,000 Carboxyfluorescein succinimidyl ester (CFSE)-labeled CD4+CD25-effector T cells were cultured with 100,000 CD11c+ dendritic cells as antigen. […] Proliferation was measured based on CFSE dilution. […] P values were derived using a 2-tailed t-test.
Mixed lymphocyte reactions were performed as described. Briefly, allogenic effector B6 CF SE-labeled T cells were incubated in a 96-well plate (250,000/well) with CD11c+ Bal/b APC (100,000/well) that were purified from bulk splenocytes on anti-CD11c-coupled Milteny microbeads. […] Proliferation was measured based on CFSE dilution.

BMSC [7] = test: BMSC migration assay; assay type: cell-based; settings: 10 uM 5HT vs untreated BMSC; BMSC pooled from 3 donors
BMSC [8] = test: BMSC proliferation in vitro; assay type: cell-based; settings: 10 uM 5HT vs untreated BMSC; BMSC pooled from 3 donors
[9] = test system: HaCaT human keratinocyte cell line; test: Single cell migration assay; assay type: cell-based; settings: HaCaT cells
Text: as §1

[10] = test system: phosphorylated ERK in keratinocytes; test: Multiplex assay, phosphorylated ERK; assay type: cell-based, human; settings: 10 μM 5-HT for 6 hours, NHKs
Protocol: as §1
(§2) NHKs from 3 different donors were cultured in 100 mm dishes until 80% confluent and treated with 10 μM 5-HT for 6 hours. Protein lysates were collected and quantified with Bradford assays before proceeding according to manufacturer's protocol (Millipore Multiplex Assay (MILLIPLEX® MAP 48-680MAG). Results were normalized to total protein levels quantified separately by Bradford protein assays.

[11] = test system: phosphorylated STAT3 in keratinocytes; test: Multiplex assay, phosphorylated STAT3; assay type: cell-based, human; settings: 10 μM 5-HT for 6 hours, NHKs
Protocol: as §1, §2

NF-kB in keratinocytes = test: Multiplex assay, NF-kB; assay type: cell-based, human; settings: 10 μM 5-HT for 6 hours, NHKs
Protocol: as §1, §2

[12] = Serotonin degradation in culture (ELISA); assay type: physicochemical; settings: after 24 hours in culture, in both the presence and absence of BMSC
Text: Serotonin is rapidly degraded when exposed to in vitro in culture conditions.

[13] = 100 nM fluoxetine, after 4 hours of polarization

Compound: O=C(c1ccc(F)cc1)C1CCN(CCn2c(=O)[nH]c3ccccc3c2=O)CC1 [Ketanserin]
effect on fluoxetine-enhanced M2 polarization (CD206+ cells, flow cytometry) [1]: reversed

Compound: COc1ccccc1N1CCN(CCCCN2C(=O)c3ccccc3C2=O)CC1 [NAN190]
effect on fluoxetine-enhanced M2 polarization (CD206+ cells, flow cytometry) [1]: reversed

Compound: CC(C)(C)NCC(O)COc1cccc2c1CC(O)C(O)C2 (centres unmarked) [Nadolol]
lipid solubility [2]: low

Compound: CNCCC(Oc1ccc(C(F)(F)F)cc1)c1ccccc1 (centres unmarked) [fluoxetine]
migratory speed of human keratinocytes ([3]; fluoxetine (0.01-1 μM) in the presence of serotonin (1 μM), 6 hours): significantly increased
re-epithelialization compared to PEG vehicle control [4]: increased
re-epithelialization vs vehicle control [4]: significantly improved
increase in re-epithelialization compared to INTEGRA alone ([4]; day 11, all wounds with INTEGRA matrix, 1 μM fluoxetine daily, 250,000 MSC): 17%
angiogenesis (CD31+ endothelial cells) in wound beds vs vehicle [5]: significantly increased
macrophage (F4/80+ cells) numbers in wound beds vs vehicle [5]: significantly increased
neutrophils (Gr-1+ cells) in wound beds vs vehicle [5]: significantly fewer
Arg-1 transcripts (RT-PCR) [1, 13]: significant increased
CD206 transcripts (RT-PCR) [1, 13]: significant increased
Ym-1 transcripts (RT-PCR) [1, 13]: significant increased
M2 polarization of naïve macrophages (CD206+ cells, flow cytometry) ([1]; after 24 hours of M2 polarization): enhanced
T cell proliferation (CFSE dilution) [6]: significantly inhibit

serotonin in culture lost [12]: Over 50%
Compound: NCCc1c[nH]c2ccc(O)cc12 [serotonin]
BMSC migratory speed (BMSC [7]): significantly increased
BMSC proliferation (BMSC [8]): significantly increased
keratinocyte migration (single cell migration) [9]: increases
migration of keratinocytes ([3]; primary keratinocytes from 3 donors, 6-hour time point, mitomycin-treated): enhance migration of keratinocytes in a dose-dependent manner
phosphorylation of ERK [10]: significantly increased
phosphorylation of STAT3 [11]: significantly increased
NF-kB protein (NF-kB in keratinocytes): increase
re-epithelialization vs vehicle control [4]: significantly improved
angiogenesis (CD31+ endothelial cells) in wound beds vs vehicle [5]: increasing
macrophage (F4/80+ cells) numbers in wound beds vs vehicle [5]: increasing
neutrophils (Gr-1+ cells) in wound beds vs vehicle [5]: significantly fewer
T cell proliferation (CFSE dilution) [6]: significantly inhibit

Compound: CC(C)(C)NC[C@H](O)COc1nsnc1N1CCOCC1 [timolol]
re-epithelialization compared to PEG vehicle control [4]: increased
